Tested on: neuropathic mice
Details: conditioned 1 h 30 after injection, post- versus pre-conditioning, result in words
Method: 14 days after mice are free to explore during 10 minutes, a 2-chamber arena separated by a narrow corridor. A camera placed above the device allows tracking of mice movements. […] 1 H 30 after injection of either fluoxetine alone or combination of fluoxetine and CLP290, mice are restricted to one chamber during 10 minutes. 2 days after mice are put again and free to explore the entire arena. […] As control experiment, the same procedure is performed in neuropathic mice with fluoxetine and CLP290 vehicle.

CNCCC(Oc1ccc(C(F)(F)F)cc1)c1ccccc1 (stereo not shown) [fluoxetine]
time spent in the conditioned chamber (CPP): not

From patent US20240277636A1, “COMBINATION COMPRISING AT LEAST ONE SEROTONIN REUPTAKE INHIBITOR AND AT LEAST ONE STIMULATOR OF POTASSIUM-CHLORIDE COTRANSPORTER TYPE 2 AND ITS MEDICAL USE” (Université de Bordeaux, priority 2021, published 2024)
